In patent publication US5616712A, “Acetylenes disubstituted with a phenyl or heteroaryl group and a 2-thio-1,2,3,4-tetrahdroquinolinyl, 2-alkylthio-3,4-dihydroquinolinyl or 2-alkoxy-3,4-dihydroquinolinyl group having retinoid-like biological activity” (Allergan, priority 1995, dated 1997):

Columns and labels:
[1] = tested on: ornithine decarboxylase (ODC); conditions: qualitative; cited from earlier work
[2] = tested on: ornithine decarboxylase (ODC); assay: Inhibition of TPA induction of ornithine decarboxylase (ODC) (Table 2); type: cell-based; conditions: concentration which results in 80 per cent inhibition of the ODC induction activity by TPA
Excerpt: The retinoid-like activity of these compounds is confirmed through the classic measure of retinoic acid activity involving the effects of retinoic acid on ornithine decarboxylase. The original work on the correlation between retinoic acid and decrease in cell proliferation was done by Verma & Boutwell, Cancer Research, 1977, 37,2196-2201. That reference discloses that ornithine decarboxylase (ODC) activity increased precedent to polyamine biosynthesis. It has been established elsewhere that increases. in polyamine synthesis can be correlated or associated with cellular proliferation. Thus, if ODC activity could be inhibited, cell hyperproliferation could be modulated. […] IC80 is that concentration of the test compound (expresed in nanomolar (nmol)) which results in 80 per cent inhibition of the ODC induction activity by TPA.

SMILES	IC80 [2] [nM]	also measured
CCCCCCCCCCCCCC(=O)O[C@@H]1[C@@H](C)[C@@]2(O)[C@@H](C=C(CO)C[C@]3(O)C(=O)C(C)=C[C@@H]23)[C@@H]2C(C)(C)[C@]12OC(C)=O [12-0-tetradecanoylphorbol-13-acetate]	–	induction of ODC activity [1]: induces ODC activity
CCOC(=O)c1ccc(C#Cc2ccc3c(c2)C(C)(C)CC(=O)N3C(C)C)cc1 [Compound 5]	6.4	–
CCOC(=O)c1ccc(C#Cc2ccc3c(c2)C(C)(C)CC(OC(C)C)=N3)cc1 [Compound 6, Ethyl 4-[(4,4-dimethyl-2-isopropoxy-3,4-dihydro-6-quinolinyl)ethynyl]benzoate]	> 100	–
CCOC(=O)c1ccc(C#Cc2ccc3c(c2)C(C)(C)CC(=S)N3C(C)C)cc1 [Compound 7, Ethyl 4-[(4,4-dimethyl-2-thio-1,2,3,4-tetrahydro-1-iso-propyl-6-quinolinyl)ethynyl]benzoate]	5.5	–
CCOC(=O)c1ccc(C#Cc2ccc3c(c2)C(C)(C)CC(=S)N3)cc1 [Compound 8, Ethyl 4-[(4,4-dimethyl-2-thio-1,2,3,4-tetrahydro-6quinolinyl)ethynyl]benzoate]	54	–
CCOC(=O)c1ccc(C#Cc2ccc3c(c2)C(C)(C)CC(SC)=N3)cc1 [Compound 9, Ethyl 4-[(4,4-dimethyl-2-methylthio-3,4-dihydro-6-quinolinyl)ethynyl]benzoate]	29	–
CCCCCCCSC1=Nc2ccc(C#Cc3ccc(C(=O)OCC)cc3)cc2C(C)(C)C1 [Compound 10, Ethyl 4-[(4,4-dimethyl-2-heptylthio-3,4-dihydro-6-quinolinyl)ethynyl]benzoate]	> 60	–
CC1=C(/C=C/C(C)=C/C=C/C(C)=C/C(=O)O)C(C)(C)CCC1 [Retinoic acid]	–	inhibition of TPA induction of ODC activity [1]: inhibits this induction of ODC activity by TPA
